The target of one series is T1, PARP6 (Homo sapiens, UniProt Q2NL67).
T1 construct: purchased BPS 80556
As to the kind of experiment: Assay for selectivity for PARP6 (ELISA, chemiluminescence). The format is biochemical. Here is the method: Main instruments and reagents for PARP6 assay
Experimental procedures: The enzymatic activity of PARP6 was assayed by the ELISA method. […] The IC50 values of the compounds were calculated using the nonlinear fitting formula in GraphPad software.
For orientation: An ELISA detects its analyte on a solid surface through an enzyme-linked reagent.

The test system of series [1] is CD34+ hematopoietic stem and progenitor cells (hmPB34-P-SC). As to the kind of experiment: Hematological toxicity assay (CellTiter-Glo 2.0). It counts as cell-based. The settings on record: 120 h; 5 days of culture. Here is the method: The next day, the cells were resuspended and seeded in a 96-well plate at a concentration of 1000 cells/well, and meanwhile, different concentrations of the drug were added for treatment, with 3 replicate wells set for each concentration. After 5 days of culture, the number of viable cells in each well was determined using a CellTiter-Glo 2.0 kit, followed by detection by a microplate reader.
A general note: In ATP-based viability assays light output follows the ATP content of the culture.

Series [2] deals with MDA-MB-436 breast cancer subcutaneous xenograft tumor model. As to the kind of experiment: In vivo pharmacodynamic study of compound 2 in MDA-MB-436 subcutaneous xenograft tumor model. Conditions: 100 mg/kg, oral once daily, 30 days.
Method: Experimental process: Twenty-four female NOD/SCID mice were used in the experiment. […] All groups were subjected to oral administration once daily. Meanwhile, the mice were weighed every 2 days, and the length and width of the tumors were measured with a vernier caliper. After 30 days of administration, the tumor-bearing mice were anesthetized and sacrificed. The tumor tissues were dissected, weighed, and photographed, and the tumor growth inhibition rates were calculated.
For a further series, the target named is T2, PARP1 (Homo sapiens, UniProt P09874).
T2 construct: purchased BPS 80501
The experiment in a line: PARP1 enzyme assay (histone-coated plate, chemiluminescence). It counts as biochemical. Conditions: PARP1 0.02 nM, DNA 0.8 nM, NAD+ 3.5 µM; read-out: PARP-1 IC50.

The test system of series [3] is BRCA-mutated MDA-MB-436 cells. The experiment in a line: Anti-proliferative activity against cells (CCK8): MDA-MB-436. The settings on record: Homo sapiens, 72 h + 96 h culture. It counts as cell-based.
Series [4] has as its system BRCA wild-type DLD-1 cells. The experiment in a line: Anti-proliferative activity against cells (CCK8): DLD-1. Conditions: Homo sapiens, 72 h + 96 h culture. It counts as cell-based. The method in brief: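 DLD-1 cells (1000/well) in RPMI-1640 with 10% FBS, treated 24 h after plating with PARPi at 0, 1 or 10 µM final. Cultured 72 h, medium exchanged with re-added PARPi, then a further 96 h; read-out by CCK8.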

A short description of series [5]: Pharmacokinetic evaluation in Balb/c mice. The format is in vivo. Conditions: 1mg/kg, PO; for AUC(0-t) / Cmax / half-life: male, mouse, plasma. How it is done: Experimental objective: To understand the pharmacokinetic profiles of the compounds. Experimental basis: Technical guidelines for non-clinical pharmacokinetic studies of chemical drugs, 2014.
Experimental scheme: The pharmacokinetic profiles of the compounds were investigated by intravenous administration (1 mg·kg^-1) and intragastric administration (1 mg·kg^-1) in Balb/c mice.
Sample preparation: About 0.2 mg of the compound was weighed out and dissolved in 10 µL of DMSO, and then a sodium chloride solution for injection was added to prepare a 0.1 mg·mL^-1 compound solution for later administration.
Three of the mice were subjected to intravenous administration (IV) at 1 mg·kg^-1, while the other three were subjected to intragastric administration (PO) at 1 mg·kg^-1. About 0.05 mL of blood was collected at 5 min, 15 min, 30 min, 1 h, 2 h, 4 h, 6 h, 8 h, 10 h, 24 h, and 48 h after administration. The collected blood was centrifuged at 3500 rpm for 15 min. The supernatant plasma was then collected and cryopreserved at -40 °C for later analysis. The plasma concentration was quantitatively analyzed using the LC-MS/MS method, and pharmacokinetic parameters such as […] (Cmax), area under plasma concentration-time curve (AUC(0-t)), half-life (T1/2), clearance rate (CL), tissue distribution (Vdss), and bioavailability (F) were calculated. Table 18. Results of pharmacokinetic test of compounds in Balb/c mice

Series [6] in a line: Cerebrospinal fluid and plasma distribution in vivo. Conditions: rat, male rats, intravenous 5 mg/kg, n = 1. How it is done: Experimental procedures: The compound was weighed out, a small amount of DMSO was added, and then a sodium chloride solution for injection was added to prepare a 5 mg·mL^-1 compound solution for later administration. […] 10 µL of the plasma and 10 µL of the cerebrospinal fluid were each added to a centrifuge tube, and 40 µL of acetonitrile containing 20 ng·mL^-1 internal standard SAHA was added for precipitation. […] The supernatant was collected and transferred to a sample vial for later analysis. Range of standard curve: 1-1000 ng·mL^-1.

Series [7] deals with T3, hERG potassium ion channel (Homo sapiens, UniProt Q12809).
T3 construct: expressed in transfected cells; host or cells: CHO cells
As to the kind of experiment: Inhibition of hERG potassium ion channel (Qpatch, CHO cells stably expressing hERG). It counts as cell-based. How it is done: Cell culture and treatment: CHO cells stably expressing hERG were cultured in a cell culture flask and incubated in an incubator with 5% CO2 at 37 °C. When the cell density reached 60%-80%, the cell culture medium was removed by pipetting. The cells were washed once with PBS, and then Detachin was added for detachment. After complete detachment, a culture medium was added for neutralization. The cells were then centrifuged, and the supernatant was removed by pipetting. A culture medium was further added for resuspension, and the cell density was adjusted to (2-5) × 10^6 cells/mL for later use.
Compound preparation: The compound stock solution was diluted with 100% DMSO. Specifically, 10 µL of the compound stock solution was added to 20 µL of DMSO, followed by a 3-fold serial dilution to obtain 6 concentrations. 4 µL of each of the 6 compound solutions at different concentrations was taken and added to 396 µL of an extracellular fluid, resulting in a 100-fold dilution to obtain 6 intermediate concentrations. Then, 80 µL of each of the 6 intermediate-concentration compound solutions was taken and added to 320 µL of an extracellular fluid, resulting in a 5-fold dilution to achieve the final test concentrations. The highest test concentration was 40 µM. […] DMSO at this concentration has no effect on the hERG potassium channel. During the compound preparation, the entire dilution process was completed by a Bravo instrument.
Electrophysiological recording process: The single-cell high-impedance sealing and whole-cell mode formation processes were all completed automatically by a Qpatch instrument. After achieving the whole-cell recording mode, the cells were clamped at -80 mV. Before a 5-second +40 mV depolarizing stimulus was applied, a 50-millisecond -50 mV prepulse voltage was first applied. The potential was then repolarized to -50 mV and held for 5 s, and finally returned to -80 mV. This voltage stimulation was applied every 15 s. After 2 min of recording, the extracellular fluid was administered, followed by recording for 5 min. Then, the compound administration process began, starting from the lowest test compound concentration. Each test concentration was applied for 2.5 min. After all the concentrations were applied consecutively, the positive control compound, 3 µM Cisapride, was administered. At least 3 cells (n ≥ 3) were tested for each concentration.
Data processing: Data analysis and processing were performed using GraphPad Prism 5.0 and Excel software. The IC50 of the compound was calculated using GraphPad Prism 5 software by equation fitting as follows: Y = Bottom + (Top−Bottom)/(1+10^(∧)((LogIC50−X)*HillSLope)) [formula] where X is the Log value of the test concentration of the test sample, Y is the inhibition percentage at the corresponding concentration, and Bottom and Top are the minimum and maximum inhibition percentages, respectively. Table 17. Results of inhibition of hERG potassium ion channel by compounds

Series [8] has as its system MDA-MB-436 breast cancer subcutaneous xenograft tumor model. As to the kind of experiment: In vivo pharmacodynamic study of compound 53 in MDA-MB-436 subcutaneous xenograft tumor model. Further details: species or system NOD/SCID mice. The settings on record: oral once daily, 30 days; for inhibitory effects on tumor growth (in words): compared to blank control.
Where [9] appears, read: cerebrospinal fluid, read-out: Cerebrospinal fluid.

Where two headings read alike, the source gives them in different places.

T1 sequence (Q2NL67 whole entry): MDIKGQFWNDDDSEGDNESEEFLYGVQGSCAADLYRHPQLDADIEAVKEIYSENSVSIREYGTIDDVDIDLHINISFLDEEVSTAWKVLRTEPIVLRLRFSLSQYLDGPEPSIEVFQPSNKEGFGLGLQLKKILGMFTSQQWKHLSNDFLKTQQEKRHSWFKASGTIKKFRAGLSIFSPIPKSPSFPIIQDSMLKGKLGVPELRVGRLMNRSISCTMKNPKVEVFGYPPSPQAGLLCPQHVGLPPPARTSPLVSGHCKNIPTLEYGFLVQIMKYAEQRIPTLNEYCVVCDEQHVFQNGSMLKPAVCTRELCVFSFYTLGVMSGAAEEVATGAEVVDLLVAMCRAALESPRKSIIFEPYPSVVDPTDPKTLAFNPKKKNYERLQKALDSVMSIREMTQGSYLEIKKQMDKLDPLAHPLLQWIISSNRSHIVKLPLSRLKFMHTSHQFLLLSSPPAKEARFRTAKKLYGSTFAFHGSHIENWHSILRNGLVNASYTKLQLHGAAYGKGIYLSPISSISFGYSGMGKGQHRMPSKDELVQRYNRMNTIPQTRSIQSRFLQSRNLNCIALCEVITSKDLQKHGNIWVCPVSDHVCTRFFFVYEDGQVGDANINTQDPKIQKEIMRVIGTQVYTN
T2 sequence (P09874 whole entry): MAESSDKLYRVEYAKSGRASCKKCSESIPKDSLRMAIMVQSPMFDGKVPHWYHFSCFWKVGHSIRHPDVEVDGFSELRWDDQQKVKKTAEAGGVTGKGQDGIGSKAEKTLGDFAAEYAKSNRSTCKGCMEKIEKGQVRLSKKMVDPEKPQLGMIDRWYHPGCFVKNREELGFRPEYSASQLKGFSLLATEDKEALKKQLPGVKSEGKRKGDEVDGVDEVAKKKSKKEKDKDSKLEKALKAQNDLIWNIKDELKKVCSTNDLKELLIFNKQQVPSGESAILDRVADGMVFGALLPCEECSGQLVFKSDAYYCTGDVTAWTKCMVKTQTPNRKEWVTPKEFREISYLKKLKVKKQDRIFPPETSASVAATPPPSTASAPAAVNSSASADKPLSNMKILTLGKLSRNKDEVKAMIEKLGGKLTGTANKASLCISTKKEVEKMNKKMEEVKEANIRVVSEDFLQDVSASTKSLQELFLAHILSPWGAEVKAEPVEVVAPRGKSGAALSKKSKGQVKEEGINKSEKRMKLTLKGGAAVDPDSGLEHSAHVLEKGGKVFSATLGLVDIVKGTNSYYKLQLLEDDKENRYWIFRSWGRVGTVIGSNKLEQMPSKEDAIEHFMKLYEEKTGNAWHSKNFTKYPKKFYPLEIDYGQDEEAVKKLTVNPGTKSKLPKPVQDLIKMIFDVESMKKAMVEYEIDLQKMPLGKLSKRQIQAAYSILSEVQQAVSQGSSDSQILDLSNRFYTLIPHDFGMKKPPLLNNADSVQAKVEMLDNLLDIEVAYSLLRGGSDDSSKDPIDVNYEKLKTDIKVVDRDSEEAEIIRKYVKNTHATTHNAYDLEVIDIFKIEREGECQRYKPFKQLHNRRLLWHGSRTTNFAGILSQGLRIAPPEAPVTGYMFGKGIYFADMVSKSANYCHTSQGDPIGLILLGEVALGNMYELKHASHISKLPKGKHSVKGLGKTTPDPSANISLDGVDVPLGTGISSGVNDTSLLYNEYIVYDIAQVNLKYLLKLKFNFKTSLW
T3 sequence (Q12809 whole entry): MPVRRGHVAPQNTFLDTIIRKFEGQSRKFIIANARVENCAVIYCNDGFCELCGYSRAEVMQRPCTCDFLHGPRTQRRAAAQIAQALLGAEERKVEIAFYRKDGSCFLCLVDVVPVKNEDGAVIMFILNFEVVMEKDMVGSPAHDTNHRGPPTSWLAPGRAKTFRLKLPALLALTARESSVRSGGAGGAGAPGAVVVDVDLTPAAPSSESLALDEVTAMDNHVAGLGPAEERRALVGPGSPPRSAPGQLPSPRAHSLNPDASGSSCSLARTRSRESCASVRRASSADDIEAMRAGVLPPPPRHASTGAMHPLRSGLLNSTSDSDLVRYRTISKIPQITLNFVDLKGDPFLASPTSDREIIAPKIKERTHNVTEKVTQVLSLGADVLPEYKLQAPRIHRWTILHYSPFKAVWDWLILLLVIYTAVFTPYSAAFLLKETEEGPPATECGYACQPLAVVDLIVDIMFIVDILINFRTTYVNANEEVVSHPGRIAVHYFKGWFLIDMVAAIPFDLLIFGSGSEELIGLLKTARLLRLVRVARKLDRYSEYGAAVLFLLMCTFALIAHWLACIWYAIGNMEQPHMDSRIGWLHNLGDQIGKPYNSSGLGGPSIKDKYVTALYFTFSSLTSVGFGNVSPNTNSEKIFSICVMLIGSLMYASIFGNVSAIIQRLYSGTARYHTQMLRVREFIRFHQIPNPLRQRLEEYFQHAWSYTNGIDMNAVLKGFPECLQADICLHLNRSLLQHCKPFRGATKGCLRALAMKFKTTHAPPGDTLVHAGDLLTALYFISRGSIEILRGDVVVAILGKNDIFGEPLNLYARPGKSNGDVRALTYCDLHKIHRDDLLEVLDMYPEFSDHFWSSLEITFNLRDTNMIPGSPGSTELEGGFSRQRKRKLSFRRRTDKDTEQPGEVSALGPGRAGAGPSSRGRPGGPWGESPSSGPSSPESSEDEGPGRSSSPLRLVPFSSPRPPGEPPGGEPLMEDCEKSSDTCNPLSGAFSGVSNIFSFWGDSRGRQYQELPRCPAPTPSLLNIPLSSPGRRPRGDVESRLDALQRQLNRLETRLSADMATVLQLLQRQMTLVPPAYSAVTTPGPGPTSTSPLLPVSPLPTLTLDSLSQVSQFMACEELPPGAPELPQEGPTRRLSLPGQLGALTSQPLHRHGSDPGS

What is called IC50 is the point on the concentration scale where inhibition reaches its midpoint. The compound `CCc1cc2ncc(CN3CCN(c4ccc(C(=O)NC)nc4)CC3)cc2[nH]c1=O` [AZD5305, reference compound] returned an IC50 against PARP6 of 8190 nM.

In turn, `O=C(c1cc(Cc2n[nH]c(=O)c3ccccc23)ccc1F)N1CCN(C(=O)C2CC2)CC1` [Olaparib, reference compound] came in with an IC50 in [1] of 200 nM. Also, in [2], the “tumor growth inhibition rate” value worked out at 65.81%.

As for `Cc1cc2c([nH]c1=O)CC(CN1CCN(c3ccc(C(=O)Nc4cnn(C)c4)nc3F)CC1)OC2` (centres unmarked) [Example 77, 6-Fluoro-N-(1-methyl-1H-pyrazol-4-yl)-5-(4-((3-methyl-2-oxo-1,5,7,8-tetrahydro-2H-pyrano[4,3-b]pyridin-7-yl)methyl)piperazin-1-yl)picolinamide], the half-inhibitory concentration (IC50) on PARP1 is not above 50 nM; in series [3], 3.9 nM; in series [4], more than 1000 nM; in series [1], 307 nM.

As to `[2H]C([2H])([C@H]1CCc2nc(C)c(=O)[nH]c2C1)N1CCN(c2ccc(C(=O)NC)nc2Cl)CC1` [Example 85, (S)-6-Chloro-N-methyl-5-(4-((2-methyl-3-oxo-3,4,5,6,7,8-hexahydroquinoxalin-6-yl)methyl-d2)piperazin-1-yl)picolinamide], the IC50 on PARP1 was not above 50 nM; in [3] it was 7 nM; in series [4] it was more than 1000 nM; in [1], more than 1000 nM.

In general, AUC(0-t) refers to the area under the concentration-time curve up to a stated or last time point. The low end stands for low exposure, the high end for high exposure. The term Cmax denotes the highest concentration seen after dosing. As a reminder, the half-life is how long it takes for the measured level to halve. Read a high half-life as slow loss. For `CNC(=O)c1ccc(C2=CCN(CC3Cc4[nH]c(=O)c(C5CC5)cc4CO3)CC2)c(F)n1` (centres unmarked) [Example 51, 1'-((3-Cyclopropyl-2-oxo-1,5,7,8-tetrahydro-2H-pyrano[4,3-b]pyridin-7-yl)methyl)-2-fluoro-N-methyl-1',2',3',6'-tetrahydro-[3,4'-bipyridine]-6-carboxamide], at PARP1, the IC50 fell in the range of 50 to 500 nM. Further, in series [3], the IC50 came to 160 nM. In addition, the half-maximal inhibitory concentration (IC50) in series [4] is more than 1000 nM. In [5], this compound displayed a CL of 0.17 mL/min/kg, a Vdss of 0.04 L/kg, an AUC(0-t) of 96800 ng·h/mL and a Cmax of 6280 ng/mL. Further, the half-life in [5] is 15.9 h. Moreover, in series [6] (setting [9]), the concentration at 0.25 h is 53 ng/g and the concentration at 2 h was 25 ng/g. For the same compound, in series [6] (plasma, read-out: Plasma), the concentration at 0.25 h amounted to 41900 ng/mL and the concentration at 2 h came to 21700 ng/mL. This compound registered an IC50 in [1] of more than 1000 nM.

As a reminder, the inhibition is how much of the control response was suppressed. With `C=Cc1cc2c([nH]c1=O)CC(CN1CCN(c3ccc(C(=O)NC)nc3F)CC1)OC2` (centres unmarked) [Example 67, 6-Fluoro-N-methyl-5-(4-((2-oxo-3-vinyl-1,5,7,8-tetrahydro-2H-pyrano[4,3-b]pyridin-7-yl)methyl)piperazin-1-yl)picolinamide], the values for the IC50 (on PARP1; in series [4]; in series [1]) were not above 50 nM, more than 1000 nM and more than 1000 nM, respectively. In addition, the “inhibitory effects on the hERG potassium ion channel (in words)” value in series [7] (conclusion of Table 17) is recorded as “Conclusion: Compounds 2, 6, 45, 62, 67, 74, 83, 87, etc., of the present disclosure exhibited relatively weak inhibitory effects on the hERG potassium ion channel”. The inhibition at 2.5 min, 20 µM in series [7] (human, 20 µM, CHO cells stably expressing hERG, read-out: Inhibition rate at 20 µM) was 4.18%.

As for `CNC(=O)c1ccc(N2CCN(Cc3ccc4nc(C)c(=O)[nH]c4c3F)CC2)c(F)n1` [AZD9574, reference compound], the “inhibitory effects on tumor growth (in words)” value in series [8] (3 mg/kg) is on record as “significant inhibitory effects on tumor growth”.

For `CNC(=O)c1ccc(N2CCN(CC3Cc4[nH]c(=O)c(C(F)F)cc4CO3)CC2)c(F)n1` (centres unmarked) [Example 43, 5-(4-((3-(Difluoromethyl)-2-oxo-1,5,7,8-tetrahydro-2H-pyrano[4,3-b]pyridin-7-yl)methyl)piperazin-1-yl)-6-fluoro-N-methylpicolinamide], the half-inhibitory concentration (IC50) is 50 to 500 nM on PARP1 and more than 10000 nM against PARP6. In addition, the concentration at 0.25 h in series [6] (setting [9]) amounted to 16 ng/g; in [6] (plasma, read-out: Plasma), 8030 ng/mL. Further, the concentration at 2 h in [6] (setting [9]) was found to be 3 ng/g; in series [6] (plasma, read-out: Plasma), 7690 ng/mL. Also, the “inhibitory effects on PARP6 (in words)” value against PARP6 (conclusion of Table 21) was “Conclusion: Compounds 2, 43, etc., of the present disclosure exhibited relatively weak inhibitory effects on PARP6, demonstrating high selectivity”.

Turning to `CCc1nc2c([nH]c1=O)C[C@@H](CN1CC=C(c3ccc(C(=O)NC)nc3F)CC1)CC2` [Example 53, (S)-1'-((2-Ethyl-3-oxo-3,4,5,6,7,8-hexahydroquinoxalin-6-yl)methyl)-2-fluoro-N-methyl-1',2', 3',6'-tetrahydro-[3,4'-bipyridine]-6-carboxamide], at PARP1, the 50% inhibitory concentration (IC50) is not above 50 nM. Besides, the IC50 in [3] came to 1.5 nM. Also, the 50% inhibitory concentration (IC50) in [4] is more than 1000 nM. Besides, in series [5], the CL was 0.67 mL/min/kg, the Vdss worked out at 0.42 L/kg, the area under the curve AUC(0-t) is 22300 ng·h/mL and the highest level (Cmax) was 3650 ng/mL. In series [5], this compound had a half-life of 7.1 h. In addition, in series [8] (1 mg/kg), the “anti-tumor effect compared with the AZD9574 (3 mg/kg) group (in words)” value is given as “superior” and the “inhibitory effects on tumor growth (in words)” value is on record as “significant inhibitory effects on tumor growth”.

For the origin of these results see EP4768487A1, “FUSED LACTAM RING COMPOUND AND USE THEREOF” (Chengdu Zenitar Biomedical Technology Co., Ltd., priority 2023, dated 2025).
